We go through 19 compounds from patent US20080176857A1, “4-Piperazinnylthieno[2,3-d]Pyrimidine Compounds as Platelet Aggregation Inhibitors” (priority 2005, published 2008).

This test has as its target P2Y12 receptor (Homo sapiens, UniProt Q9H244). The experiment in a line: [33P]-2MeS-ADP binding to recombinant human P2Y12 membranes (Assay 3). Also on record: expressed in transfected cells; host or cells: HEK cells. To be noted: for IC50 / Ki: HEK cell membranes expressing human P2Y12, competition with 33P 2MeS-ADP; for inhibition at 10 µM / % Inhibition: at highest concentration tested, 10 μM. As for the experimental part:
3. Human P2Y12 Recombinant Cell Membrane Binding Assay with ^33P 2MeS-ADP.
The ability of a test compound to bind to the P2Y12 receptor was evaluated in a recombinant cell membrane binding assay. In this competitive binding assay, the test compound competed against a radiolabelled agonist for binding to the P2Y12 receptor, expressed on the cell membrane. Inhibition of binding of the labeled material was measured and correlated to the amount and potency of the test compound. Data from this assay are presented in Table F. This binding assay is a modification of the procedure in Takasaki, J. et. al, Mol. Pharmacol., 2001, Vol. 60, pg. 432.
HEK cells were transfected with the pDONR201P2Y12 vector and cultured in MEM with GlutaMAX I, Earle's salts, 25 mM HEPES (Gibco # 42360-032) containing 10% dialyzed FBS (Gibco # 26400-044), 100 μM nonessential amino acids (Gibco # 11140-050), 1 mM sodium pyruvate (Gibco # 11360-070), 0.05% geneticin (Gibco #10131-027), 3 μg/mL blasticidin (Fluka brand from Sigma # 15205), and 0.5 μg/mL puromycin (Sigma # P-8833).
Confluent cells were washed once with cold DPBS (Gibco # 14190-136). Fresh DPBS was added and the cells were scraped and centrifuged at 500×g for 5 minutes at 4° C. The cell pellets were resuspended in TEE buffer (25 mM Tris, 5 mM EDTA, 5 mM EGTA) containing 1 protease inhibitor cocktail tablet (Roche # 1 873 580) per 50 mL (called TEE+Complete) and can be flash frozen at this point.
In one embodiment, frozen cell pellets were used to prepare the membranes. In that embodiment, the frozen cell pellets were thawed on ice. In another embodiment, cell pellets may be used without flash freezing before moving on to the next step.
Cell pellets were resuspended in TEE buffer+Complete and homogenized in a glass dounce for 12 strokes. The cell suspension was centrifuged at 500×g for 5 minutes at 4° C. The supernatant was saved and centrifuged at 20,000×g for 20 minutes at 4° C. This supernatant was discarded and the cell pellet resuspended in TEE buffer+Complete and homogenized in a glass dounce for 12 strokes. This suspension was centrifuged at 20,000×g for 20 minutes at 4° C. and the supernatant discarded. The pellet was resuspended in assay buffer (50 mM Tris, 100 mM NaCl, 1 mM EDTA) containing one protease inhibitor cocktail tablet per 50 mL, and can be flash frozen as 1 mL aliquots at this point.
Dry compounds were diluted as 10 mM DMSO stocks and tested in a seven-point, three-fold dilution series run in triplicate beginning at 10 μM, final concentration. A 1 mM DMSO intermediate stock was made in a dilution plate and from this the seven dilutions were made to 5× the final concentration in assay buffer containing 0.02% BSA.
The plates were incubated at room temperature for 1 hour. The reaction was stopped using a cell harvester to transfer the reaction mixture onto GF/B UniFilter plates (Perkin Elmer # 6005177), and washed three times with wash buffer (50 mM Tris), filtering between each wash. The filter plates were dried for approximately 20 minutes in an oven at 50° C. Back seals were adhered to the filter plates and 25 uL of Microscint 20 scintillation fluid (Perkin Elmer # 6013621) were added. The filter plates were sealed, shaken for 30 minutes, and counted on a Top Count. Data were analyzed using a four-parameter curve fit with a fixed minimum and maximum experimentally defined as the average positive and negative controls on each plate, and with a hill slope equal to one.
The table below presents the IC50, Ki, and percent inhibition values for compounds tested in either washed human platelets membrane binding assay (assay #1 above) or recombinant cell membrane binding assay (Assay #3, above). Example number refers to the compound prepared as described in the example noted in the section Working Examples, above. The highest concentration of candidate compound tested is listed for each experimental run presented. […]

Several values for one entry are separate records, joined by “and”; a condition that tells them apart may be missing. Identical values can stand only once.

P2Y12 receptor, sequence (Q9H244 whole entry): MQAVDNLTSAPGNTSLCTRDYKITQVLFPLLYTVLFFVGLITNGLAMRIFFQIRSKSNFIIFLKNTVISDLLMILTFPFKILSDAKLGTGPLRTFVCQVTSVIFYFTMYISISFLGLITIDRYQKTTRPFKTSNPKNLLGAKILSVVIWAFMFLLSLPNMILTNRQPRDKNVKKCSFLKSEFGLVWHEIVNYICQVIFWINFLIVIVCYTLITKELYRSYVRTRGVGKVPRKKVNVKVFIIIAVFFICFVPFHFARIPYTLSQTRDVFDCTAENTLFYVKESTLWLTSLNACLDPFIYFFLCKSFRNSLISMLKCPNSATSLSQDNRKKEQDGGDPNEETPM

For the compound `CCc1cc2c(N3CCN(C(=O)c4csc(-c5cccnc5)n4)CC3)nc(SCC(=O)OC)nc2s1` [Example 81, Methyl [(6-ethyl-4-{4-[(2-pyridin-3-yl-1,3-thiazol-4-yl)carbonyl]piperazin-1-yl}thieno[2,3-d]pyrimidin-2-yl)thio]acetate], the IC50 came out at 1720 nM, the Ki came out at 1070 nM and the inhibition at 10 µM is 76.7%.
For the compound `CCOc1cccc(C(=O)N2CCN(c3nc(SCC(=O)OC)nc4sc(CC)cc34)CC2)c1` [Example 76, Methyl ({4-[4-(3-ethoxybenzoyl)piperazin-1-yl]-6-ethylthieno[2,3-d]pyrimidin-2-yl}thio)acetate], the concentration for half-maximal inhibition (IC50) amounted to 1170 nM, the Ki turned out to be 730 nM and the inhibition at 10 µM is 75.9%.
Consider `CCc1cc2c(N3CCN(C(=O)Cc4ccccc4)CC3)nc(SCCC(=O)OC)nc2s1` [Example 82, methyl 3-({6-ethyl-4-[4-(phenylacetyl)piperazin-1-yl]thieno[2,3-d]pyrimidin-2-yl}thio)propanoate], for which the IC50 was 390 nM and 1170 nM and 220 nM and 270 nM and 400 nM; the Ki is 212 nM and 667 nM and 120 nM and 150 nM and 230 nM; the “% Inhibition” value is 86.00% and 93.95% and 94.10% and 89.55%; the inhibition at 10 µM turned out to be 92.7%.
For `CCc1cc2c(N3CCN(C(=O)Cc4ccccc4)CC3)nc(S(=O)(=O)CC(=O)OC)nc2s1` [Example 8, Methyl ({6-ethyl-4-[4-(phenylacetyl)piperazin-1-yl]thieno[2,3-d]pyrimidin-2-yl}sulfonyl)acetate], the IC50 was determined as 1200 nM; the Ki is 720 nM and 680 nM; the “% Inhibition” value is 81.44%; the inhibition at 10 µM worked out at 81.3%.
Take `CCc1cc2c(N3CCN(C(=O)c4cccc(N(C)C)c4)CC3)nc(SCC(=O)OC)nc2s1` [Example 74, Methyl [(4-{4-[3-(dimethylamino)benzoyl]piperazin-1-yl}-6-ethylthieno[2,3-d]pyrimidin-2-yl)thio]acetate]: the IC50 turned out to be 5740 nM, the Ki worked out at 3690 nM and the inhibition at 10 µM worked out at 59%.
Taken in the same sequence, the figures for `CCc1cc2c(N3CCN(C(=O)c4ccc(-c5ccccc5)cc4)CC3)nc(SC(C)C(C)=O)nc2s1` (stereo not shown) [Example 29, 3-({4-[4-(1′-Biphenyl-4-ylcarbonyl)piperazin-1-yl]-6-ethylthieno[2,3-d]pyrimidin-2-yl}thio)butan-2-one] were 160 nM, 91 nM and 82.2%.
`CCCOc1ccc(C(=O)N2CCN(c3nc(SCC(=O)OC)nc4sc(CC)cc34)CC2)cc1` [Example 71, Methyl ({6-ethyl-4-[4-(4-propoxybenzoyl)piperazin-1-yl]thieno[2,3-d]pyrimidin-2-yl}thio)acetate]: the IC50 amounted to 289 nM, the Ki worked out at 179 nM and the inhibition at 10 µM came to 89.3%.
Take `CCc1cc2c(N3CCN(C(=O)c4c(-c5ccc(OC)cc5)noc4C)CC3)nc(SCC(=O)OC)nc2s1` [Example 68, Methyl {[6-ethyl-4-(4-{[3-(4-methoxyphenyl)-5-methylisoxazol-4-yl]carbonyl}piperazin-1-yl)thieno[2,3-d]pyrimidin-2-yl]thio}acetate]: the concentration for half-maximal inhibition (IC50) turned out to be 6420 nM, the Ki was determined as 3880 nM and the inhibition at 10 µM was 96.4%.
The like results for `CCc1cc2c(N3CCN(C(=O)c4ccc5cc[nH]c5c4)CC3)nc(SCC(=O)OC)nc2s1` [Example 63, Methyl ({6-ethyl-4-[4-(1H-indol-6-ylcarbonyl)piperazin-1-yl]thieno[2,3-d]pyrimidin-2-yl}thio)acetate] were, in that order, 1880 nM, 1130 nM and 68.1%.
As to `CCc1cc2c(N3CCN(C(=O)c4ccc5ccccc5c4)CC3)nc(SCC(=O)OC)nc2s1` [Example 55, Methyl ({6-ethyl-4-[4-(2-naphthoyl)piperazin-1-yl]thieno[2,3-d]pyrimidin-2-yl}thio)acetate], the IC50 was found to be 1470 nM, the Ki was determined as 980 nM and the inhibition at 10 µM turned out to be 61.2%.
`CCc1cc2c(N3CCN(C(=O)Cc4ccccc4)CC3)nc(SC(C)C(=O)O)nc2s1` (stereo not shown) [Example 25, 2-({6-Ethyl-4-[4-(phenylacetyl)piperazin-1-yl]thieno[2,3-d]pyrimidin-2-yl}thio)propanoic acid]: the IC50 is 200 nM and 270 nM; the Ki is 110 nM and 150 nM; the “% Inhibition” value came to 94.08%; the inhibition at 10 µM turned out to be 88.6%.
With `CCc1cc2c(N3CCN(C(=O)/C=C/c4ccccc4)CC3)nc(SCC(=O)OC)nc2s1` [Example 47, Methyl [(6-ethyl-4-{4-[(2E)-3-phenylprop-2-enoyl]piperazin-1-yl}thieno[2,3-d]pyrimidin-2-yl)thio]acetate], the IC50 turned out to be 5440 nM, the inhibitory constant (Ki) was determined as 3630 nM and the inhibition at 10 µM is 48.6%.
Regarding `CCc1cc2c(N3CCN(C(=O)c4ccc(N(C)C)cc4)CC3)nc(SCC(=O)OC)nc2s1` [Example 54, Methyl [(4-{4-[4-(dimethylamino)benzoyl]piperazin-1-yl}-6-ethylthieno[2,3-d]pyrimidin-2-yl)thio]acetate], the IC50 is 6190 nM and 4440 nM; the Ki is 3560 nM and 2960 nM; the “% Inhibition” value is given as 61.77%; the inhibition at 10 µM stood at 47.8%.
Take `CCc1cc2c(N3CCN(C(=O)Cc4ccccc4)CC3)nc(SCCc3ccncc3)nc2s1` [Example 26, 6-Ethyl-4-[4-(phenylacetyl)piperazin-1-yl]-2-[(2-pyridin-4-ylethyl)thio]thieno[2,3-d]pyrimidine]: the IC50 was 800 nM; the Ki is 460 nM and 430 nM; the “% Inhibition” value is reported as 88.94%; the inhibition at 10 µM stood at 88.7%.
Regarding `CCc1cc2c(N3CCN(C(=O)c4ccc(C(F)(F)F)cc4)CC3)nc(SCC(=O)OC)nc2s1` [Example 46, Methyl [(6-ethyl-4-{4-[4-(trifluoromethyl)benzoyl]piperazin-1-yl}thieno[2,3-d]pyrimidin-2-yl)thio]acetate], the IC50 is above 10000 nM, the Ki is above 6700 nM and the inhibition at 10 µM amounted to 41.8%.
For `CCc1cc2c(N3CCN(C(=O)Cc4ccccc4)CC3)nc(SCC(O)CO)nc2s1` (stereo not shown) [Example 12, 3-({6-Ethyl-4-[4-(phenylacetyl)piperazin-1-yl]thieno[2,3-d]pyrimidin-2-yl}thio)propane-1,2-diol], the IC50 was 340 nM and 370 nM; the Ki is 200 nM and 210 nM; the “% Inhibition” value is 92.83%; the inhibition at 10 µM amounted to 83.4%.
Consider `CCc1cc2c(N3CCN(C(=O)Cc4ccccc4)CC3)nc(SC[C@H](N)C(=O)OC)nc2s1` [Example 16, Methyl S-{6-ethyl-4-[4-(phenylacetyl)piperazin-1-yl]thieno[2,3-d]pyrimidin-2-yl}-L-cysteinate], for which the IC50 is 270 nM and 360 nM; the Ki was 150 nM and 210 nM; the “% Inhibition” value was found to be 87.82%; the inhibition at 10 µM stood at 88.7%.
Regarding `CCc1cc2c(N3CCN(C(=O)Cc4ccccc4)CC3)nc(SCC(C)O)nc2s1` (stereo not shown) [Example 17, 1-({6-Ethyl-4-[4-(phenylacetyl)piperazin-1-yl]thieno[2,3-d]pyrimidin-2-yl}thio)propan-2-ol], the IC50 is 500 nM and 530 nM; the Ki is 290 nM and 310 nM; the “% Inhibition” value is 87.05%; the inhibition at 10 µM was 90.6%.
Take `CCc1cc2c(N3CCN(C(=O)Cc4ccccc4)CC3)nc(SCC(=O)Nc3ccc4ccccc4c3)nc2s1` [Example 9, 2-({6-Ethyl-4-[4-(phenylacetyl)piperazin-1-yl]thieno[2,3-d]pyrimidin-2-yl}thio)-N-2-naphthylacetamide]: the IC50 was > 10000 nM and 9300 nM; the Ki is > 5900 nM and 5400 nM.

As a reminder, the IC50 is the concentration at which inhibition is half-maximal. A word on the Ki: it is the dissociation constant of the complex between target and ligand, obtained from inhibition or displacement. Usually inhibition stands for the drop in the measured response relative to a control, in per cent. A word on the % Inhibition: it is the share of the control response that was lost under treatment.
